A short description of one data set: Plasma stability. Particulars: 37 °C, 10 µM. It counts as in vitro ADME. The protocol: About 10 µM of compound 2l was mixed with human plasma and rat plasma and the mixture was shaked at 37 °C for 30 min and 120 min. After each time interval, acetonitrile was added and the mixture was centrifugated (14000 rpm, 4 °C). The supernatant was injected into the LC-MS to detect the remaining amount of compound 2l.

Broadly, the melting point is the temperature, or range, at which the solid turns liquid.

`COc1cccc(-c2nn(-c3ccccc3)cc2-c2ccnc(NCCNS(=O)(=O)c3ccccc3)c2)c1` [Compound 1a, N-(2-((4-(3-(3-methoxyphenyl)-1-phenyl-1H-pyrazol-4-yl)pyridin-2-yl)amino)ethyl) benzenesulfonamide] returned a melting point of 104 to 106 °C.

`COc1ccc(S(=O)(=O)NCCNc2cc(-c3cn(-c4ccccc4)nc3-c3cccc(OC)c3)ccn2)cc1` [Compound 1e, 4-Methoxy-N-(2-((4-(3-(3-methoxyphenyl)-1-phenyl-1H-pyrazol-4-yl)pyridin-2-yl)amino)ethyl)benzenesulfonamide] registered a melting point of 144 to 146 °C.

On to `COc1cccc(-c2nn(-c3ccccc3)cc2-c2ccnc(NCCNS(=O)(=O)c3ccc(C)cc3)c2)c1` [Compound 1f, N-(2-((4-(3-(3-Methoxyphenyl)-1-phenyl-1H-pyrazol-4-yl)pyridin-2-yl)amino)ethyl)-4-methylbenzenesulfonamide], for which the melting point fell in the range of 150 to 152 °C.

`COc1cccc(-c2nn(-c3ccccc3)cc2-c2ccnc(NCCNS(=O)(=O)c3cccc(F)c3)c2)c1` [Compound 1h, 3-Fluoro-N-(2-((4-(3-(3-methoxyphenyl)-1-phenyl-1H-pyrazol-4-yl)pyridin-2-yl)amino)ethyl)benzenesulfonamide] had a melting point of 118 to 120 °C.

`COc1cccc(-c2nn(-c3ccccc3)cc2-c2ccnc(NCCNS(=O)(=O)c3cccc4ccccc34)c2)c1` [Compound 1i, N-(2-((4-(3-(3-Methoxyphenyl)-1-phenyl-1H-pyrazol-4-yl)pyridin-2-yl)amino)ethyl)naphthalene-1-sulfonamide] yielded a melting point of 178 to 180 °C.

For the compound `O=S(=O)(NCCNc1cc(-c2cn(-c3ccccc3)nc2-c2cccc(O)c2)ccn1)c1ccccc1` [Compound 1j, N-(2-((4-(3-(3-Hydroxyphenyl)-1-phenyl-1H-pyrazol-4-yl)pyridin-2-yl)amino)ethyl) benzenesulfonamide], the melting point is 100 to 102 °C.

Compound `Cc1ccc(S(=O)(=O)NCCNc2cc(-c3cn(-c4ccccc4)nc3-c3cccc(O)c3)ccn2)cc1` [Compound 1n, N-(2-((4-(3-(3-Hydroxyphenyl)-1-phenyl-1H-pyrazol-4-yl)pyridin-2-yl)amino)ethyl)-4-methylbenzenesulfonamide] registered a melting point of 114 to 116 °C.

In the case of `O=S(=O)(NCCNc1cc(-c2cn(-c3ccccc3)nc2-c2cccc(O)c2)ccn1)c1cccc(F)c1` [Compound 1p, 3-Fluoro-N-(2-((4-(3-(3-hydroxyphenyl)-1-phenyl-1H-pyrazol-4-yl)pyridin-2-yl)amino)ethyl)benzenesulfonamide], the melting point was in the range of 146 to 148 °C.

The compound `O=S(=O)(NCCNc1cc(-c2cn(-c3ccccc3)nc2-c2cccc(O)c2)ccn1)c1cccc2ccccc12` [Compound 1q, N-(2-((4-(3-(3-Hydroxyphenyl)-1-phenyl-1H-pyrazol-4-yl)pyridin-2-yl)amino)ethyl)naphthalene-1-sulfonamide] returned a melting point of 146 to 148 °C.

Take `COc1cccc(-c2nn(-c3ccccc3)cc2-c2ccnc(NCCCNS(=O)(=O)c3ccccc3)c2)c1` [Compound 2a, N-(3-((4-(3-(3-Methoxyphenyl)-1-phenyl-1H-pyrazol-4-yl)pyridin-2-yl)amino)propyl) benzenesulfonamide]: the melting point fell in the range of 119 to 120 °C.

In turn, `COc1ccc(S(=O)(=O)NCCCNc2cc(-c3cn(-c4ccccc4)nc3-c3cccc(OC)c3)ccn2)cc1` [Compound 2e, 4-Methoxy-N-(3-((4-(3-(3-methoxyphenyl)-1-phenyl-1H-pyrazol-4-yl)pyridin-2-yl)amino)propyl)benzenesulfonamide] had a melting point of 124 to 126 °C.

Take `COc1cccc(-c2nn(-c3ccccc3)cc2-c2ccnc(NCCCNS(=O)(=O)c3ccc(C)cc3)c2)c1` [Compound 2f, N-(3-((4-(3-(3-Methoxyphenyl)-1-phenyl-1H-pyrazol-4-yl)pyridin-2-yl)amino)propyl)-4-methylbenzenesulfonamide]: the melting point was in the range of 94 to 96 °C.

In turn, `COc1cccc(-c2nn(-c3ccccc3)cc2-c2ccnc(NCCCNS(=O)(=O)c3cccc4ccccc34)c2)c1` [Compound 2i, N-(3-((4-(3-(3-Methoxyphenyl)-1-phenyl-1H-pyrazol-4-yl)pyridin-2-yl)amino)propyl) naphthalene-1-sulfonamide] gave a melting point of 134 to 136 °C.

In turn, `O=S(=O)(NCCCNc1cc(-c2cn(-c3ccccc3)nc2-c2cccc(O)c2)ccn1)c1ccccc1` [Compound 2j, N-(3-((4-(3-(3-Hydroxyphenyl)-1-phenyl-1H-pyrazol-4-yl)pyridin-2-yl)amino)propyl) benzenesulfonamide] showed a melting point of 154 to 156 °C.

In the case of `Cc1ccc(S(=O)(=O)NCCCNc2cc(-c3cn(-c4ccccc4)nc3-c3cccc(O)c3)ccn2)cc1` [Compound 2n, N-(3-((4-(3-(3-Hydroxyphenyl)-1-phenyl-1H-pyrazol-4-yl)pyridin-2-yl)amino)propyl)-4-methylbenzenesulfonamide], the melting point was 158 to 160 °C.

As to `COc1ccc([C@@H]2Sc3ccccc3N(CCN(C)C)C(=O)[C@@H]2OC(C)=O)cc1` [Diltiazem], the “Plasma stability, remaining unchanged” value in “Plasma stability” (Human plasma, 30 min) is reported as 91.5%; in “Plasma stability” (Human plasma, 30 min, listed as diltiazem), 91.5%; in the data set “Plasma stability” (Human plasma, 120 min) it was 89.3%; in “Plasma stability” (Human plasma, 120 min, listed as diltiazem), 89.3%; in the data set “Plasma stability” (Rat plasma, 30 min), 86.3%; in “Plasma stability” (Rat plasma, 120 min), 45.4%.

For the compound `CCN(CC)CCOC(=O)c1ccc(N)cc1` [Procaine], the “Plasma stability, remaining unchanged” value in the data set “Plasma stability” (Human plasma, 30 min) is 1.2%; in “Plasma stability” (Human plasma, 30 min, listed as procaine), 1.2%; in the data set “Plasma stability” (Human plasma, 120 min), 0.2%; in “Plasma stability” (Human plasma, 120 min, listed as procaine) it was 0.2%; in the data set “Plasma stability” (Rat plasma, 30 min) it was 89.9%; in the data set “Plasma stability” (Rat plasma, 120 min) it was 42.7%.

For the origin of these results see publication PMC6211260 (Journal of Enzyme Inhibition and Medicinal Chemistry, 2018).
